Literature values, collected in US20250313903A1, “NEOANTIGEN IMMUNOTHERAPY” (Gradalis, Inc., priority 2023, published 2025).
Like-named read-outs stand apart in the source and are kept apart here.

Tests used:
[1] = test system: primary advanced or recurrent dMMR or MSI-H endometrial cancer; conditions: dostarlimab-gxly vs. placebo + carboplatin-paclitaxel
[2] = test system: persistent/recurrent cervical cancer; conditions: in vivo
[3] = test system: metastatic melanoma; conditions: previously untreated, wild-type BRAF (CheckMate-067 and CheckMate-069)
[4] = test system: small-cell lung cancer (SCLC)
[5] = test system: persistent/recurrent cervical cancer; conditions: in vivo; remark: listed apart in the source
[6] = test system: advanced renal cell cancer; conditions: in vivo
[7] = test system: advanced metastatic non-small cell lung cancer (NSCLC); conditions: one patient, EGFR exon 19 deletion; ongoing greater than 1 year
[8] = test system: MSI-H/dMMR tumors; conditions: in vivo
[9] = test system: metastatic melanoma progressed after anti-CTLA-4 therapy; conditions: in vivo
[10] = test system: lymph-node positive or metastatic melanoma after complete resection; conditions: adjuvant
[11] = test system: non-small cell lung cancer (NSCLC); conditions: progressed after platinum-doublet chemotherapy
[12] = test system: relapsed/refractory metastatic squamous cell cancer of head and neck; conditions: second-line
[13] = test system: ovarian cancer
[14] = in vivo

Dostarlimab-gxly: anti-PD-1 checkpoint inhibitor
median PFS [1]: Median PFS: 30.3 months

Nivolumab: fully humanized IgG4 antibody targeting PD-1
ORR [2]: ORR: 26.3% | median OS [2]: Median OS: 21.9 months | response rate [3]: 40% | 24-months OS rate ([4]; in vivo): 17.9% | median OS ([4]; in vivo): 4.7 months | response rate ([4]; progressed on platinum and at least one other line): 11.6% | 6-months OS [5]: 6-months OS: 78% | 6-months PFS [5]: 6-months PFS: 16%; | median duration of SD [5]: SD: 5.7 months | OS [6]: 25.0 months | response (in words) [7]: durable partial response | ORR [8]: 31% | response rate [9]: 32% | 12-month RFS [10]: 70.5% | ORR [11]: 19-20% | median OS [11]: 9.2-12.2 months | median PFS [11]: 2.3-3.5 months | OS [12]: 7.5 months

bevacizumab: VEGF inhibitor
survival ([13]; BRCA-m and HRD pattern disease): 62.6 months | survival ([13]; patients with HRP tumors): 43.4 months | patients developing Grade 3/4 product related adverse events [14]: over 65%
